Where two headings read alike, the source gives them in different places.
Legend:
acetic acid writhing = experiment: Analgesic action, acetic acid writhing test in mouse; assay type: in vivo, mouse (ddY strain); details: sc, dorsal-subcutaneous, 15 minutes before acetic acid, writhing reactions over 10 minutes
Method: Evaluation of Analgesic Action by Acetic Acid Writhing Test in Mouse
Five-week-old ddY strain mice were subjected to this experiment. A 0.6% acetic acid solution was intraperitoneally administered at a volume of 0.1 ml/10 g·.body weight. Analgesic activity was evaluated with an index which was the number of writhing reactions occurring over 10 minutes from 10 minutes after administration. The drug to be evaluated was dorsal-subcutaneously administered 15 minutes before the administration of acetic acid.

δ-opioid = target: T1, δ-opioid (Mus musculus, UniProt P32300); experiment: δ-opioid agonism: inhibition of electrically stimulated mouse vas deferens (MVD) contraction, antagonism by NTI; assay type: biochemical, mouse (male ddy strain); design: Ke: unit not given here; details: for Ke: against NTI added 20 minutes before, Ke=[NTI Concentration]/[(IC50 ratio)-1]
T1 construct: Each of the vas deferens isolated from the mice was hung in a Magnus tube; from tissue; host or cells: isolated vas deferens of male ddy strain mice
T1 sequence (P32300 whole entry): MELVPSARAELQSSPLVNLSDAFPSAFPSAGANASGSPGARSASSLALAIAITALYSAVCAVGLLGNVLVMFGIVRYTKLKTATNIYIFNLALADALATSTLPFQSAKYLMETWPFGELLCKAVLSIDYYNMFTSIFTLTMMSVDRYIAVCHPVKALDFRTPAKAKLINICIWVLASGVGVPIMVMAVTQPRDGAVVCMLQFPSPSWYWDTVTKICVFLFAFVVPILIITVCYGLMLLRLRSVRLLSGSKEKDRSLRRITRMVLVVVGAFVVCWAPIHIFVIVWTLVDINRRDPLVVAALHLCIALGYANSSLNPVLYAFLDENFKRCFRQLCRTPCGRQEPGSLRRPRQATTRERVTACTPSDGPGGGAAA
Method: Using mouse vas deferens (MVD), antagonistic compounds were examined for antagonism against a δ-opioid agonist DPDPE, and agonistic compounds were examined for inhibitory activity against MVD contraction by electric stimulation, and for antagonism by a δ-opioid antagonist NTI.
Male ddy strain mice were used in this experiment. Each of the vas deferens isolated from the mice was hung in a Magnus tube which was filled with a Krebes-Henseleit solution (NaCl […]; KCl 4.7 mM; CaCl2 2.5 mM; KH2 PO4 1.1 mM; NaHCO3 25 mM; glucose 11 mM), and aerated with a gas of 5% carbon dioxide and 95% oxygen and maintained at 37° C. Electric stimulation was applied through upper and lower ring-shaped platinum electrodes at 0.1 Hz and 5.0 mS. Tissue contraction was recorded on a polygraph using an isometric transducer.
Initially, a sample compound was added in a cumulative manner to determine the IC50 value (concentration for 50% inhibition of contraction induced by electric stimulation). Next, […] was added to the system beforehand, and 20 minutes later, the sample compound was added in a cumulative manner. According to the above procedure, the ratio of the IC50 values of the sample compound in the presence of NTI to that in the absence of NTI was determined, and the Ke value was calculated in accordance with the following equation.
Ke=[NTI Concentration]/[(IC50 ratio)-1]

| SMILES | ED50 (acetic acid writhing) [mg/kg] | IC50 (δ-opioid) [nM] | Ke (δ-opioid) | IC50 (δ-opioid; concentration for 50% inhibition of MVD contraction induced by electric stimulation) [nM] |
| --- | --- | --- | --- | --- |
| C=CCCN1CC[C@]23c4c5ccc(O)c4O[C@H]2c2c(c4cccc6c4n2CCC6)C[C@@]3(O)[C@H]1C5 [Compound 28, 17-(3-butenyl)-6,7-didehydro-4,5α-epoxy-3,14β-dihydroxy-1',7'-trimethylene-6,7,2',3'-indolomorphinan] | 16.7 | 15.8 | 0.05 | – |
| CN1CC[C@]23c4c5ccc(O)c4O[C@H]2c2c(c4cccc6c4n2CCC6)C[C@@]3(O)[C@H]1C5 [Compound 55, 17-Methyl-6,7-didehydro-4,5α-epoxy-3,14β-dihydroxy-1',7'-trimethylene-6,7,2',3'-indolomorphinan] | – | 18.2 | 0.21 | – |
| Oc1ccc2c3c1O[C@H]1c4c(c5cccc6c5n4CCC6)C[C@@]4(O)[C@@H](C2)N(CC2CCC2)CC[C@]314 [Compound 56, 17-cyclobutylmethyl-6,7-didehydro-4,5α-epoxy-3,14β-dihydroxy-1',7'-trimethylene-6,7,2',3'-indolomorphinan] | – | 2.96 | 6.21 | – |
| Oc1ccc2c3c1O[C@H]1c4c(c5cccc6c5n4CCC6)C[C@@]4(O)[C@@H](C2)N(CCc2ccccc2)CC[C@]314 [Compound 57, 17-phenethyl-6,7-didehydro-4,5α-epoxy-3,14β-dihydroxy-1',7'-trimethylene-6,7,2',3'-indolomorphinan] | – | – | 0.06 | 9.71 |
| Oc1ccc2c3c1O[C@H]1c4c(c5cccc6c5n4CCC6)C[C@@]4(O)[C@@H](C2)N(CCc2cccs2)CC[C@]314 [Compound 65, 17-(thiophene-2-ylethyl)-6,7-didehydro-4,5α-epoxy-3,14β-dihydroxy-1',7'-trimethylene-6,7,2',3'-indolomorphinan] | – | 33.9 | 0.03 | – |
